Experimental data as given in ChEMBL document CHEMBL6109047, “Synthesis strategies and anti-parasitic evaluation of novel compounds for chagas disease: Advancing drug discovery through structure-activity relationships” (Eur J Med Chem, 2025).
Each block holds one molecule with its values, some of them ahead of it.

Experiments:
[1] = Toxicity in CD-1 mouse infected with Trypanosoma cruzi Y trypomastigotes assessed as mortality at 50 mg/kg/day, po pre-infected with parasite followed by compound addition and measured after 15 days relative to control; type: organism-based; conditions: in vivo, 360 h, time 15 day
[2] = Toxicity in CD-1 mouse infected with Trypanosoma cruzi Y MHOM/MX/1994/INC5 from blood stream trypomastigotes assessed as reduction in parasite growth by measuring lethal concentration; conditions: in vivo, 24 h
[3] = Toxicity in CD-1 mouse infected with Trypanosoma cruzi Y MHOM/MX/1994/NINOA from blood stream trypomastigotes assessed as reduction in parasite growth by measuring lethal concentration; conditions: in vivo, 24 h
[4] = test system: Trypanosoma cruzi; test: Antitrypanosomal activity against Trypanosoma cruzi Tulahuen amastigotes expressing Escherichia coli beta-galactosidase infected in LLC-MK2 cells incubated for 48 hrs; type: functional, organism-based; conditions: LLC-MK2, 48 h
[5] = test system: Trypanosoma cruzi; test: Antitrypanosomal activity against bloodstream […] form of Trypanosoma cruzi Y; type: functional, organism-based
[6] = test system: Trypanosoma cruzi; test: Antitrypanosomal activity against bloodstream trypomastigote form of Trypanosoma cruzi Y; type: functional, organism-based
[7] = test system: Trypanosoma cruzi; test: Trypanocidal activity against Trypanosoma cruzi Tulahuen-2 epimastigotes incubated for 24 hrs by Neubauer chamber method; type: functional, organism-based; conditions: Tulahuen-2, 24 h
[8] = Cytotoxicity against rhesus monkey LLC-MK2 cells; type: toxicity, cell-based, Macaca mulatta
[9] = test system: Trypanosoma cruzi; test: Antitrypanosomal activity against Trypanosoma cruzi Y strain trypomastigotes Vero cells assessed as inhibition of parasite growth incubated for 24 hrs by Neubauer chamber based analysis; type: functional, organism-based
[10] = test system: Trypanosoma cruzi; test: Antitrypanosomal activity against bloodstream trypomastigote form of Trypanosoma cruzi Y assessed as parasite growth inhibition incubated for 24 hrs by light microscopic analysis; type: functional, organism-based
[11] = test system: Trypanosoma cruzi; test: Antitrypanosomal activity against Trypanosoma cruzi Tulahuen-2 infected in […] J774 cells assessed as inhibition of parasite proliferation; type: functional, organism-based; conditions: Tulahuen-2, J774
[12] = test system: Trypanosoma cruzi; test: Trypanocidal activity against Trypanosoma cruzi NINOA epimastigotes incubated for 24 hrs by Neubauer chamber method; type: functional, organism-based
[13] = test system: Trypanosoma cruzi; test: Anti-trypanosomal activity against Trypanosoma cruzi Y trypomastigotes infected in mouse RAW264.7 cells assessed as inhibition of parasite release measured for 48 hrs; type: functional, organism-based; conditions: RAW264.7, 48 h
[14] = test system: Trypanosoma cruzi; test: Antitrypanosomal activity against bloodstream trypomastigote form of Trypanosoma cruzi Y assessed as reduction in parasite growth; type: functional, organism-based

Compound: O=C(N/N=C/c1ccc(F)cc1)c1ccccc1
- Activity [1]: 46.2%

Compound: c1ccc(CSc2nc3ccccc3s2)cc1
- LC50 [2]: 336 µM
- LC50 [3]: 123 µM

Compound: Fc1ccc(Nc2cnc3ccccc3c2)cc1
- IC50 [5]: 10.9 µM
- IC50 [6]: 616 µM
- IC50 [7]: 11.3 µM

Compound: O=C(Cn1cccc1[N+](=O)[O-])Nc1cccc(C(F)(F)F)c1
- CC50 at 48 h [8]: 2.1 µM

Compound: Fc1cccc(F)c1CSc1nc2ccccc2s1
- LC50 [2]: 260 µM
- LC50 [3]: 110 µM

Compound: Fc1c(F)c(F)c(CSc2nc3ccccc3s2)c(F)c1F
- LC50 [2]: 185 µM
- LC50 [3]: 147 µM

Compound: COc1cc(OC)cc(OC2=C(Oc3cc(OC)cc(OC)c3OC)C(=O)c3ccccc3C2=O)c1
- IC50 [11]: 43 µM
- IC50 [12]: 1.3 µM
- IC50 [7]: 0.49 µM

Compound: O=C1c2ccccc2C(=O)N1C/C(=N/NC(=S)Nc1ccccc1)c1ccc(Cl)cc1Cl
- IC50 [13]: 3.6 µM

Compound: COC(=O)/C=C/c1ccc2c(c1)C(C(=O)OC)C(c1ccc(O)cc1)O2 (stereo not given)
- IC50 [4]: 11.9 µM
- IC50 [5]: 3.26 µM
- CC50 at 48 h [8]: 49.9 µM

Compound: CC1CCc2oc3c(c2C1)C(=O)c1ccccc1C3=O (stereo not given)
- IC50 [6]: 0.031 µM

Compound: Clc1ccc(Nc2cnc3ccccc3c2)cc1
- IC50 [5]: 25.8 µM
- IC50 [6]: > 500 µM
- IC50 [7]: 12 µM

Compound: CC1CCc2oc3c(c2C1)C(=O)C(=O)c1ccccc1-3 (stereo not given)
- IC50 [6]: 0.074 µM

Compound: COC(=O)/C=C/c1ccc2c(c1)C(C(=O)OC)C(c1ccc(O)c(OC)c1)O2 (stereo not given)
- IC50 [4]: 7.96 µM
- CC50 at 48 h [8]: 0.86 µM

Compound: CS/C(N)=N\N=C\c1c(C(F)(F)F)nn(-c2ccccc2)c1-c1ccc(Br)cc1
- IC50 [6]: 25.7 µM

Compound: CC(C)(C)C1CCc2oc3c(c2C1)C(=O)c1ccccc1C3=O (stereo not given)
- IC50 [6]: 0.033 µM

Compound: CCC1S/C(=N\N=C(/C)c2ccc(Cl)cc2Cl)NC1=O (stereo not given)
- IC50 [9]: 2.57 µM

Compound: O=C1C(=O)c2c(oc3c2CCCC3)-c2ccccc21
- IC50 [6]: 0.064 µM

Compound: O=C1c2ccccc2C(=O)c2c1oc1c2CCCC1
- IC50 [6]: 0.129 µM

Compound: NC(=S)N/N=C/c1c(C(F)(F)F)nn(-c2ccccc2)c1-c1ccc(Br)cc1
- IC50 [6]: 30 µM

Compound: O=C(Cn1ccnc1[N+](=O)[O-])NCc1ccccc1 [BENZNIDAZOLE]
- IC50 [4]: 5.64 µM
- IC50 [6]: 91 µM
- IC50 [9]: 6.26 µM
- Activity [1]: 68.3%
- IC50 [10]: 34.5 µM
- CC50 at 48 h [8]: 156 µM

Further lines, with some results ahead:

- IC50 [4]: 12.2 µM
Compound: NC(=S)N/N=C(\C=C\c1ccc(Cl)cc1)c1ccccc1

- IC50 [5]: 22.8 µM
- IC50 [6]: 420 µM
Compound: Fc1cccc(Nc2cnc3ccccc3c2)c1
- IC50 [7]: 13.5 µM

- IC50 [9]: 0.85 µM
Compound: C/C(=N\N=C1/NC(=O)C(c2ccccc2)S1)c1cc(Cl)ccc1Cl (stereo not given)

- IC50 [10]: 2.75 µM
Compound: CCOC(=O)c1csc(N/N=C/c2ccco2)n1

- IC50 [6]: 19.1 µM
Compound: COc1ccc(-c2c(/C=N/N=C(/N)SC)c(C(F)(F)F)nn2-c2ccccc2)cc1

- IC50 [13]: 4.48 µM
Compound: COc1ccc(/C(CN2C(=O)c3ccccc3C2=O)=N\Nc2nc(-c3ccc(OC)cc3)cs2)cc1

- IC50 [10]: 0.83 µM
Compound: CCOC(=O)c1csc(N/N=C/c2ccccc2Br)n1

- IC50 [9]: 1.12 µM
Compound: C/C(=N\N=C1\NC(=O)C(c2ccccc2)S1)c1ccc(Cl)cc1Cl (stereo not given)

- IC50 [13]: 3.75 µM
Compound: O=C1c2ccccc2C(=O)N1C/C(=N/NC(=S)Nc1ccccc1)c1ccc(F)cc1

- IC50 [11]: 51 µM
Compound: Cc1ccc(OC2=C(Br)C(=O)c3ccccc3C2=O)c(C)c1
- IC50 [12]: 1.69 µM
- IC50 [7]: 0.45 µM

- EC50 [14]: 40.8 µM
Compound: O=C(O)Cc1ccccc1/C=C/c1ccc2cccc(O)c2n1

- IC50 [10]: 2.83 µM
Compound: CCOC(=O)c1csc(N/N=C(\C)c2ccccc2)n1

- EC50 [14]: 36 µM
Compound: COc1cccc(/C=C/c2ccc3cccc(O)c3n2)c1CC(=O)O

- IC50 [10]: 4.44 µM
Compound: CCOC(=O)c1csc(N/N=C/c2cccc(Cl)c2)n1
